# Laboratory results published in patent US7537906B2, “Apoptosis inducer and method of screening for a substance inhibiting acylated homoserine lactone” (priority 2003, dated 2009).
# Experiments:
# Akt [1] = assay: Akt activity (phospho-Akt) by Western blot in CaCo-2 cells; type: cell-based, human
# Description: CaCo-2, the carcinoma cell line of human colon cancer, was purchased from American Type Culture Collection (ATCC), and cultured at 37° C. in the presence of 5% CO2 using a DMEM medium containing 10% FCS, 1% NEAA, and 1% P/S (100 units/ml penicillin and 100 μg/ml streptomycin).
# 6×10^5 CaCo-2 cells were inoculated per dish using 6 cm dishes (NUNC), washed twice with phosphate buffered saline (PBS) (-), and then cultured for 24 hours in a serum-free DMEM medium containing 1% NEAA. Subsequently, at a final concentration of 100 μM, homoserine lactone hydrochloride, N-butyryl-L-homoserine lactone, N-(3-oxohexanoyl)-L-homoserine lactone and N-(3-oxododecanoyl)-L-homoserine lactone were each added, and then each solution was allowed to react for 10 minutes. In addition, purified acylated homoserine lactone that was used herein had been dissolved in DMSO in a concentration 400 times higher than the target final concentration, and then subjected to filter sterilization (φ 0.22 μm). DMSO at a final concentration of 0.25% was used as a control. In addition, α-tubulin was used as an internal standard.
# After reaction, the product was washed twice with cold PBS (-), and then frozen at −80° C. The cells were thawed on ice, 200 μl of a lysis buffer (50 mM HEPES, pH7.5, 50 mM NaCl, 1 mM EDTA, 1.5 mM MgCl2, 1% Triton X-100, 10% glycerine, 10 mM sodium pyrophosphate, 1 mM Na3VO4, 100 mM NaF, 1 mM PMSF, 10 μg/ml aprotinin and 10 μg/ml leupeptin) was added, and then the cells were scraped off using a scraper. The cells were allowed to stand on ice for 20 minutes, and then centrifuged at 14,000 rpm at 4° C. for 15 minutes, thereby collecting the supernatant. Concentration of the collected protein was measured, and protein equivalent to 50 μg was subjected to SDS-PAGE. After electrophoresis, the product was blotted on a PVDF membrane. When phospho-Akt was measured, blocking was carried out with 5% skim milk/Tris-buffered saline containing 0.1% Tween 20 (TBS-T), and the anti-phospho-Akt ([…]) antibody and the HRP-labeled anti-rabbit IgG antibody were used as a primary antibody and a secondary antibody, respectively. For α-tubulin used as an internal standard, blocking was carried out with 5% bovine serum albumin (BSA)/TBS-T, and the anti-α-tubulin (Ab-1) and the HRP-labeled anti-mouse IgG antibody were used as a primary antibody and a secondary antibody, respectively. For band detection, Renaissance™ Western Blot Chemiluminescence […] Reagent Plus (NEN) or Western Blotting Luminol Reagent (SANTA CRUZ BIOTECHNOLOGY) was used. […] In addition in the figure that is described below, HSL means homoserine lactone hydrochloride, C4-HSL means N-butyryl-L-homoserine lactone, 3-oxo-C6-HSL means N-(3-oxohexanoyl)-L-homoserine lactone, and 3-oxo-C12-HSL means N-(3-oxododecanoyl)-L-homoserine lactone.
# After cell culture, N-(3-oxododecanoyl)-L-homoserine lactones with final concentrations of 0 μM (0.25% DMSO), 1 μM, 10 μM, 30 μM and 100 μM were each added. Akt activity was analyzed by Western blot in a manner similar to that used in (1), except for carrying out reaction for 10 minutes (FIG. 2).
# After cell culture, N-(3-oxododecanoyl)-L-homoserine lactones with final concentrations of 30 μM and 100 μM were each added. For each case, Akt activity was measured by Western blot in a manner similar to that in (1), except for carrying out stimulation with acylated homoserine lactone in a short time course of 0, 5, 10, 30 and 60 minutes (FIG. 4), and in a long time course of 0, 10 minutes, 60 minutes, 2 hours, 4 hours, 6 hours, 8 hours and 10 hours (FIG. 5). In the case of stimulation at 30 μM, the inhibition of Akt activity peaked at 5 minutes, and lasted until 60 minutes after stimulation, and then returned to the base level within 2 hours. On the other hand, in the case of stimulation at […], the inhibition of Akt activity peaked at 5 minutes and lasted until 6 hours after stimulation. […]
# [2] = test system: PARP (poly-ADP ribose polymerase); assay: PARP activity by Western blot (cleaved PARP) in CaCo-2 cells; type: cell-based, human
# Description: The activities of caspase (caspase-3 and caspase-9) and PARP (poly-ADP ribose polymerase) were measured in a manner similar to those in Examples 1 and 2 by Western blot analysis using each of anti-activated (cleaved) caspase antibodies, that is, an anti-cleaved caspase-3 antibody, an anti-cleaved caspase-9 antibody (D330) and an anti-cleaved PARP antibody (D214).
# N-(3-oxododecanoyl)-L-homoserine lactones with final concentrations of 30 μM and 100 μM were each added to cultured CaCo-2 cells. Caspase-3, caspase-9 and PARP activities were analyzed over time by Western blot at 0 hours, 1 hour, 2 hours, 4 hours, 6 hours, 8 hours and 10 hours after culture. […] Whereas at 30 μM, activated caspase-3 began to be detected 1 hour after stimulation and the activity lasted until 4 hours after stimulation, at 100 μM the activity peaked at 6 hours and lasted until 10 hours after stimulation. Cleaved caspase-9 and cleaved PARP were detected by reprobing each membrane.
# Next, 3 hours of reaction with N-(3-oxododecanoyl)-L-homoserine lactone was carried out at concentrations of 0, 1, 10, 30, and 100 μM, and then caspase and PARP activities were measured.
# CaCo-2 cells = assay: Effects of kinase inhibitors on N-(3-oxododecanoyl)-L-homoserine lactone-dependent apoptosis, viability by Trypan blue staining; type: cell-based, human; details: 30 μM alone, 12 hours, control 96%
# Description: 2×10^5 CaCo-2 cells were inoculated per 3.5 cm dish, cultured for 12 hours in the presence of 10% serum, washed twice with PBS (-), and then synchronously cultured in a serum-free medium for 24 hours. Pretreatment with various inhibitors (50 μM PD98059 and 20 μM SB203580) or DMSO was carried out for 30 minutes. Then 30 μM N-(3-oxododecanoyl)-L-homoserine lactone or DMSO was added, the cells were cultured for 12 hours, and then viability was measured by Trypan blue staining.
# Akt [3] = assay: Akt activity (phospho-Akt) by Western blot in CaCo-2 cells; type: cell-based, human; details: stimulation at 10 μM
# TNF-α = details: mouse macrophage culture system; cited from earlier work
smiles,measurement,setting,value
CCCCCCCCCC(=O)CC(=O)N[C@H]1CCOC1=O [N-(3-oxododecanoyl)-L-homoserine lactone],"Akt activity, % of that where no stimulation was provided","Akt [1]; 10 μM, 10 minutes",79%
same,"Akt activity, % of that where no stimulation was provided","Akt [1]; 30 μM, 10 minutes",31%
same,"Akt activity, % of that where no stimulation was provided","Akt [1]; 100 μM, 10 minutes",14%
same,level of phosphorylated Akt,"Akt [1]; 100 μM, 10 minutes",significantly decreased
same,concentration at which levels of phosphorylated Akt significantly decreased,Akt [1]; 10 minutes,≥ 10 µM
same,time at which inhibition of Akt activity peaked,Akt [1]; stimulation at 10 μM,5 min
same,inhibition of Akt activity lasted until (after stimulation),Akt [1]; stimulation at 30 μM,60 min
same,time at which inhibition of Akt activity peaked,Akt [1]; stimulation at 30 μM,5 min
same,time for Akt activity to return to the base level,Akt [1]; stimulation at 30 μM,≤ 2 h
same,inhibition of Akt activity lasted until (after stimulation),Akt [1]; stimulation at 100 μM,360 min
same,time at which inhibition of Akt activity peaked,Akt [1]; stimulation at 100 μM,5 min
same,cleaved PARP over time,[2]; 30 μM and 100 μM,behavior similar to that of cleaved caspase-9
same,concentration at which cleaved PARP was detected,"[2]; 3 hours of reaction, 0, 1, 10, 30 and 100 μM",≥ 30 µM
same,viability,CaCo-2 cells,49%
same,inhibition of Akt activity lasted until (after stimulation),Akt [3],6 h
same,TNF-α production,TNF-α,promotes
